Experiments:
phosphorylated mTOR = test: Phospho imaging assay (immunofluorescence); format: cell-based, human
Method: (§1) The effect of each compound on the PI3K/AKT/MTOR pathway was evaluated in two ways: via a kinase profile (FIG. 23) and via phospho imaging assays (i.e., immunofluorescence assays using antibodies specific for the phosphorylated form of mTOR or AKT). In vitro kinase profiling provided percent inhibition for numerous targets within the PI3K cell signaling pathway, and cell-based imaging assays were performed to directly visualize the effect of each compound on phosphorylated Akt and phosphorylated mTOR in the cell system used for differentiation.
(§2) In column 2 of Table 6, the PI3K alpha_MTOR score reflects the ability of a compound to inhibit the phosphorylation of PI3K alpha and mTOR, where + indicates minimal inhibition, and +++ indicates maximal inhibition. In column 3 of Table 6, the score indicates the ratio of phosphorylated mTOR (as measured by fluorescence intensity) in cells treated with a compound and the phosphorylated mTOR (as measured by fluorescence intensity) in cells that were not treated with the compound. In column 4 of Table 6, the score indicates the ratio of phosphorylated AKT (as measured by fluorescence intensity) in cells treated with a compound and the phosphorylated AKT (as measured by fluorescence intensity) in cells that were not treated with the compound. A reported effect of AKT inhibitors is an increase in phosphorylated AKT.

phosphorylated AKT = test: Phospho imaging assay (immunofluorescence); format: cell-based, human; conditions: 60 min; treated versus untreated cells, fluorescence intensity
Method: as §1, §2

mTOR = mTOR (Homo sapiens, UniProt P42345); test: In vitro kinase profile, PI3K alpha_MTOR score; format: biochemical
Method: as §1, §2

PI3K alpha = PI3K alpha (Homo sapiens, UniProt P42336); test: In vitro kinase profile, PI3K alpha_MTOR score; format: biochemical
Method: as §1, §2

[1] = system: human embryonic stem cells (hESC); test: Endoderm differentiation of hESC with small-molecule inhibitors, flow cytometry of endoderm markers; format: cell-based; conditions: Activin A + 750 nM inhibitor, no Wnt3a, 3-day treatment
Description: A variety of cell-type specific markers were used to monitor the differentiation of stem cells into endoderm cells in the flow cytometry, fluorescence imaging, and immunoassay experiments described below. To detect endoderm conversion, hESC-derived cell samples were stained for the expression of SOX17, FoxA2, and CXCR4 proteins. SOX17, FoxA2, and CXCR4 are proteins that are expressed by endoderm cells but not by stem cells. To detect stem cells, cell samples were stained for the expression of OCT4, a protein expressed by stem cells but not by endoderm cells.
Undifferentiated human embryonic stem cells (hES) were maintained at a density of 40,000 cells/cm^2 on qualified matrigel (BD, #354277) in TesR™2 medium ([…]™ Technologies #05860). Cultures were manually passaged twice a week. To prepare for endoderm differentiation, hESC cells were passaged into TesR™2 medium overnight. The following day, the TesR™2 medium was replaced with basal medium (DMEM/F12+Glutamax (Invitrogen, #10565) supplemented with B27 (Invitrogen, #17504-044)). No human embryos were destroyed in the process of obtaining stem cells for these methods. Furthermore, the plurality of stem cells is not obtained by the prior destruction of human embryos.
Unless otherwise noted, basal medium was supplemented with […] human Activin A (Peprotech, #120-14). When indicated, basal medium was also supplemented with an effective amount of, e.g., a growth factor such as […] human Wnt3a (R&D, #5036-WN-010), an isoform-specific P13K inhibitor or an mTOR inhibitor. […]
To prepare the cells for flow cytometry, hESC-derived cells grown under endoderm differentiation conditions were dissociated using Accutase (Innovative Cell technologies, #AT-104). Briefly, the cells were washed once in PBS, incubated with Accutase for 10 minutes at room temperature, pelleted, and washed in cold PBS. The Accutase-dissociated hESC-derived cell samples were stained with anti-CXC4 antibody, anti-SOX17 antibody, or anti-FoxA2 antibody. Additional cell samples were stained with isotype control antibodies (e.g., IgG1 or IgG2).
The cells that were to be stained with anti-CXCR4 antibody were washed once with cold DPBS and then directly stained with mouse anti-human CD184 (CXCR4)-IgG2-PE (BD, #555974) for one hour at 4° C. The cells that were to be stained with anti-SOX17 antibody or anti-FoxA2 antibody were first fixed for 25 minutes at 4° C. in fixation buffer (BD, #554655) and permeabilized for 30 minutes on ice in Perm Buffer III (BD, #554656). Anti-SOX17 staining was performed using a mouse anti-SOX17 IgG1-PE antibody (BD, #561591) at room temperature for 30 minutes. Anti-FoxA2 staining was performed using a mouse anti-human FoxA2 IgG1 (BD, #561589) under the same conditions. A control sample of cells were fixed as described above and stained with either an anti-IgG1-PE antibody (BD, #554680) at room temperature for 30 minutes or an anti-IgG2-PE antibody (BD, #55574) for one hour at 4° C.
The antibody-stained hESC-derived cells were then analyzed via flow cytometry using a BD LSRFortessa™ cell analyzer. […] Approximately 1×10^6 cells were analyzed per sample.

[2] = system: human embryonic stem cells (hESC); test: AlphaLISA of SOX17 and OCT4 in hESC-derived cells; format: cell-based; conditions: Activin A + 750 nM inhibitor, no Wnt3a, 3-day treatment
Method: To detect OCT4, the cells were washed three times in PBS and lysed with 50 ul AlphaLISA Lysis Buffer (Perkin Elmer, #AL003C). The lysis buffer was added to each cell sample and mixed with the cells five times. The cell samples were then incubated in a plate shaker at room temperature for 15 minutes. 5 μl of the lysate from each sample was then transferred to a 384 well OptiPlate (Perkin Elmer, #6005629). 5 μl of 10 ug/ml anti-rabbit acceptor bead (Perkin Elmer, #AL104M) and […] of 0.2 nM of rabbit anti-OCT4 antibody (Cell Signaling, #2890) was added to each well and incubated for 2 hours at room temperature. Following the incubation, 5 μl of 0.5 nM mouse anti-OCT4 antibody (BD, #611203) and […] of 0.5 nM biotinylated goat anti-mouse antibody (Invitrogen, #B2763) were added to each well and incubated at room temperature for 2 hours. Following the incubation, […] of streptavidin donor beads (Perkin Elmer, #6760002B) were added to each well and incubated for 30 minutes. The OptiPlates were then analyzed using an Envision Multilabel Plate Reader (Perkin Elmer, #2104-0010). All beads and antibodies were diluted as necessary in IAB Buffer (Perkin Elmer, #AL000C)+50 mM NaCl. Four replicate assays were performed.
To detect SOX17, the cells were washed three times in PBS and lysed with 50 ul Roche Complete Lysis Buffer (Roche, #04719956001). The lysis buffer was added to each cell sample and mixed with the cells five times. The cell samples were then incubated in a plate shaker at room temperature for 15 minutes. 5 μl of the lysate from each sample was then transferred to a 384 well OptiPlate (Perkin Elmer, #6005629). 5 μl of 10 ug/ml anti-rabbit acceptor bead (Perkin Elmer, #AL104M) and […] of 1 nM of rabbit anti-SOX17 antibody (Sigma, #AV33271) was added to each well and incubated for 2 hours at room temperature. Following the incubation, 5 μl of 0.5 nM mouse anti-SOX antibody (Sigma, #SAB3300093) and […] of 0.5 nM biotinylated goat anti-mouse antibody (Invitrogen, #B2763) were added to each well and incubated at room temperature for 2 hours. Following the incubation, […] of streptavidin donor beads (Perkin Elmer, #6760002B) were added to each well and incubated for 30 minutes. The OptiPlates were then analyzed using an Envision Multilabel Plate Reader (Perkin Elmer, #2104-0010). All beads and antibodies were diluted as necessary in IAB Buffer (Perkin Elmer, #AL000C) Four replicate assays were performed.
After a 3-day treatment, cells were harvested and stained with anti-SOX17 antibody as described above in preparation for AlphaLISA analysis.

[3] = 60 min, treated versus untreated cells, fluorescence intensity

Sequence of PI3K alpha (P42336 whole entry, species assumed): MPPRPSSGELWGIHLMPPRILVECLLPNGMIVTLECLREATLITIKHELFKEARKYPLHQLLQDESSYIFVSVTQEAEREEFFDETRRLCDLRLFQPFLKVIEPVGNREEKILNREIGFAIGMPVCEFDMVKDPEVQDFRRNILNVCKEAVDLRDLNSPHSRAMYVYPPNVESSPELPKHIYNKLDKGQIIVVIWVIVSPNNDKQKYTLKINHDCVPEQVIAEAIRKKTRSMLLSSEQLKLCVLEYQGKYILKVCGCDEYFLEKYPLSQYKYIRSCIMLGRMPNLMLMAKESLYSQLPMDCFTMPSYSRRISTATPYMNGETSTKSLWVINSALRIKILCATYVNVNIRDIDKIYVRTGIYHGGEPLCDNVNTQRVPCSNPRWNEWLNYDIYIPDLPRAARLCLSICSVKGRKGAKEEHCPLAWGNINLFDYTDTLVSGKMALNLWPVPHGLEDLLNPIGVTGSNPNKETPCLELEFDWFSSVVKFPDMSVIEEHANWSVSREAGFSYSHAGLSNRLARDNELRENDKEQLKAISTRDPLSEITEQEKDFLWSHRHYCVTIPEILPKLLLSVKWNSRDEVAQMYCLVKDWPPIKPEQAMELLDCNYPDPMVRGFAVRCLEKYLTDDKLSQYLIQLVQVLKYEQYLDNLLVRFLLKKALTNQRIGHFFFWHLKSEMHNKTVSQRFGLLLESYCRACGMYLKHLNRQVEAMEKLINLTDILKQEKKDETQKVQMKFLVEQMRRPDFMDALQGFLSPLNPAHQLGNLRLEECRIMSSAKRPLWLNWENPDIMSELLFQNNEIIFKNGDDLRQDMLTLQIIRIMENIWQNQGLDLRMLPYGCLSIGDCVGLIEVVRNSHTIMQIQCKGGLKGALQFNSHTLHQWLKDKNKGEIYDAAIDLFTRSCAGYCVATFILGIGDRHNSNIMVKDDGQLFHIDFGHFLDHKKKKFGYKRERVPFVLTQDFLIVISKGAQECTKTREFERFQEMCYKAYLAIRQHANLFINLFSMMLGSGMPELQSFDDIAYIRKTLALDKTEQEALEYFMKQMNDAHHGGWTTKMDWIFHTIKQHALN
Sequence of PI3K alpha (P27986 whole entry partner, species assumed): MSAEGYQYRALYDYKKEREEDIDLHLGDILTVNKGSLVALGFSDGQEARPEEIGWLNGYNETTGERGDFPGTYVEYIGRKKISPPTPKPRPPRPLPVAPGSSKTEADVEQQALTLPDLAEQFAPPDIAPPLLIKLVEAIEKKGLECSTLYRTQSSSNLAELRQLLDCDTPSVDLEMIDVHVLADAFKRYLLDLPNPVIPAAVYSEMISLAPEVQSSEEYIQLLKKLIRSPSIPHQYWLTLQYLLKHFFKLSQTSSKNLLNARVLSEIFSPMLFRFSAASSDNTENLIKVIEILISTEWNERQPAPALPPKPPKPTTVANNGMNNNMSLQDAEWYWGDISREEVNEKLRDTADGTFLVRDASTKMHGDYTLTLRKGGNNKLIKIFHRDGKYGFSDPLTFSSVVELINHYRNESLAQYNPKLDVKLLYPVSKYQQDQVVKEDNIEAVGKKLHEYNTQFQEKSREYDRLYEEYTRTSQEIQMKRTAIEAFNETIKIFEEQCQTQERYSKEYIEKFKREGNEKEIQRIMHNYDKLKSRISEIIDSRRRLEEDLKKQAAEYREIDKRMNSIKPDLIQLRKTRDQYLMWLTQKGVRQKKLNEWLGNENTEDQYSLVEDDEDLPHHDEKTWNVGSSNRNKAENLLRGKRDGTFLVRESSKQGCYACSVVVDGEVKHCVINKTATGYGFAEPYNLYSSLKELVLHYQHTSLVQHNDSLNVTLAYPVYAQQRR

Row | PI3K alpha_MTOR score: MTOR (mTOR) | PI3K alpha_MTOR score: PI3K alpha (PI3K alpha) | Compound | Avg(Avg (Ph MTOR_60m_%C # Spots)) (phosphorylated mTOR; [3]) [%C] | Max(Avg (Ph AKT_60min_Intensity)) (phosphorylated AKT) | other results
1 |  |  | CO[C@H]1C[C@@H]2CC[C@@H](C)[C@@](O)(O2)C(=O)C(=O)N2CCCC[C@H]2C(=O)O[C@H]([C@H](C)C[C@@H]2CC[C@@H](OC(=O)C(C)(CO)CO)[C@H](OC)C2)CC(=O)[C@H](C)/C=C(\C)[C@@H](O)[C@@H](OC)C(=O)[C@H](C)C[C@H](C)/C=C/C=C/C=C/1C [Temsirolimus] | 42.12 |  | 
2 |  |  | Cn1c(=O)n(-c2ccc(C(C)(C)C#N)cc2)c2c3cc(-c4cnc5ccccc5c4)ccc3ncc21 [NVPBEZ235] | 43.44 | 88.3 | 
3 | +++ |  | CNC(=O)Nc1ccc(-c2nc(N3CC4CCC(C3)O4)c3cnn(C4CCC5(CC4)OCCO5)c3n2)cc1 [WYE-125132] | 17.55 |  | 
4 |  |  | COC[C@H]1OC(=O)c2coc3c2[C@@]1(C)C1=C(C3=O)[C@@H]2CCC(=O)[C@@]2(C)C[C@H]1OC(C)=O [Wortmannin] | 10.47 |  | 
5 |  |  | Clc1ccc(C2(c3ccc(-c4cn[nH]c4)cc3)CCNCC2)cc1 [AT7867] | 73.59 | 122.15 | 
6 | +++ |  | CN(C)C1CCN(C(=O)c2ccc(NC(=O)Nc3ccc(-c4nc(N5CCOCC5)nc(N5CCOCC5)n4)cc3)cc2)CC1 [PKI 587] | 77.99 |  | 
7 |  |  | CO[C@H]1C[C@@H]2CC[C@@H](C)[C@@](O)(O2)C(=O)C(=O)N2CCCC[C@H]2C(=O)O[C@H]([C@H](C)C[C@@H]2CC[C@@H](O)[C@H](OC)C2)CC(=O)[C@H](C)/C=C(\C)[C@@H](O)[C@@H](OC)C(=O)[C@H](C)C[C@H](C)/C=C/C=C/C=C/1C [Rapamycin] | 57.77 |  | 
8 | PI3K alpha+++_MTOR+++ | PI3K alpha+++_MTOR+++ | COc1ncc(-c2ccc3nccc(-c4ccnnc4)c3c2)cc1NS(=O)(=O)c1ccc(F)cc1F [GSK2126458] | 15.55 |  | 
9 | +++ |  | COc1ccc(-c2ccc3c(N4CCOC[C@@H]4C)nc(N4CCOC[C@@H]4C)nc3n2)cc1CO [AZD 8055] | 15.8 |  | 
10 | PI3K alpha+++_MTOR+++ | PI3K alpha+++_MTOR+++ | Nc1cc(C(F)(F)F)c(-c2cc(N3CCOCC3)nc(N3CCOCC3)n2)cn1 [NVPBKM120] | 60.28 |  | 
11 | PI3K alpha+_MTOR+ | PI3K alpha+_MTOR+ | CO[C@H]1C[C@@H]2CC[C@@H](C)[C@@](O)(O2)C(=O)C(=O)N2CCCC[C@H]2C(=O)O[C@H]([C@H](C)C[C@@H]2CC[C@@H](OCCO)[C@H](OC)C2)CC(=O)[C@H](C)/C=C(\C)[C@@H](O)[C@@H](OC)C(=O)[C@H](C)C[C@H](C)/C=C/C=C/C=C/1C [everolimus] |  |  | endoderm conversion (SOX17, FoxA2, CXCR4 flow cytometry) [1]: higher degree of endoderm conversion; endoderm conversion (SOX17 AlphaLISA) [2]: better endoderm conversion than cells cultured in Activin A alone or cells cultured with an Akt inhibitor; Avg(Avg (Ph MTOR_60m_%C # Spots)) (phosphorylated mTOR; 1 h): 36.46 %C
12 | PI3K alpha+++_MTOR+++ | PI3K alpha+++_MTOR+++ | Oc1cccc(-c2nc(N3CCOCC3)c3oc4ncccc4c3n2)c1 [PI103] | 5.59 |  | 
13 |  |  | Cc1c(CN2CCN(C(=O)[C@H](C)O)CC2)sc2c(N3CCOCC3)nc(-c3cnc(N)nc3)nc12 [GDC0980] | 9.99 |  | 
14 | +++ |  | COC(=O)Nc1ccc(-c2nc(N3CCOCC3)c3cnn(C4CCN(C(=O)OC)CC4)c3n2)cc1 [WYE - 354] | 10.49 | 89.35 | endoderm conversion (SOX17, FoxA2, CXCR4 flow cytometry) [1]: higher degree of endoderm conversion; endoderm conversion (SOX17 AlphaLISA) [2]: better endoderm conversion than cells cultured in Activin A alone or cells cultured with an Akt inhibitor
15 |  |  | CCC(=O)N1CCN(c2ccc(-n3c(=O)ccc4cnc5ccc(-c6cnc7ccccc7c6)cc5c43)cc2C(F)(F)F)CC1 [Torin1] | 66.6 | 89.48 | 
16 |  |  | CCn1c(-c2nonc2N)nc2c(C#CC(C)(C)O)ncc(OC[C@H]3CCCNC3)c21 [GSK690693] |  |  | endoderm conversion (SOX17, FoxA2, CXCR4 flow cytometry) [1]: higher degree of endoderm conversion
17 |  | +++ | COc1ccc2c(c1OC)N=C(NC(=O)c1cccnc1)N1CCN=C21 [PIK90] | 42.17 | 86.72 | 

Row | Compound | PI3K alpha_MTOR score: MTOR (mTOR) | PI3K alpha_MTOR score: PI3K alpha (PI3K alpha) | Avg(Avg (Ph MTOR_60m_%C # Spots)) (phosphorylated mTOR; [3]) [%C] | Max(Avg (Ph AKT_60min_Intensity)) (phosphorylated AKT) | other results
18 | COC(=O)Nc1ccc(-c2nc(N3CCOCC3)c3cnn(C4CCN(Cc5cccnc5)CC4)c3n2)cc1 [WYE-687] | +++ | + | 12.81 | 86.65 | 
